Laboratory results reported in the NIST ThermoML archive (doi:10.1021/acs.jced.9b00752).
“And” between values parts separate entries of the source, which are not always exact repeats. Equal values may be shown once. Numbers after ± are expanded uncertainties.

Experiment: mn = molality of the nth substance listed, in mol/kg
Settings: 100 kPa, Liquid, Vibrating tube method

N[C@@H](Cc1ccc(O)cc1)C(=O)O [3-(p-hydroxyphenyl)-L-alanine] + O
mass density
Settings | 273.65 K | 274.15 K | 274.65 K | 275.15 K | 275.65 K | 276.15 K | 276.65 K | 277.15 K | 277.65 K | 278.15 K
m1 = 0.0005 | 999.883 ± 0.1 kg/m3 | 999.909 ± 0.1 kg/m3 | 999.932 ± 0.1 kg/m3 | 999.95 ± 0.1 kg/m3 | 999.963 ± 0.1 kg/m3 | 999.972 ± 0.1 kg/m3 | 999.98 ± 0.1 kg/m3 | 999.979 ± 0.1 kg/m3 | 999.978 ± 0.1 kg/m3 | 999.972 ± 0.1 kg/m3
m1 = 0.001 | 999.917 ± 0.1 kg/m3 | 999.942 ± 0.1 kg/m3 | 999.965 ± 0.1 kg/m3 | 999.984 ± 0.1 kg/m3 | 999.997 ± 0.1 kg/m3 | 1000 ± 0.1 kg/m3 | 1000.01 ± 0.1 kg/m3 | 1000.01 ± 0.1 kg/m3 | 1000.01 ± 0.1 kg/m3 | 1000 ± 0.1 kg/m3
m1 = 0.0011 | 999.943 ± 0.1 kg/m3 | 999.97 ± 0.1 kg/m3 | 999.993 ± 0.1 kg/m3 | 1000.01 ± 0.1 kg/m3 | 1000.02 ± 0.1 kg/m3 | 1000.03 ± 0.1 kg/m3 | 1000.04 ± 0.1 kg/m3 | 1000.04 ± 0.1 kg/m3 | 1000.04 ± 0.1 kg/m3 | 1000.03 ± 0.1 kg/m3
m1 = 0.0022 | 1000.01 ± 0.1 kg/m3 | 1000.04 ± 0.1 kg/m3 | 1000.06 ± 0.1 kg/m3 | 1000.08 ± 0.1 kg/m3 | 1000.09 ± 0.1 kg/m3 | 1000.1 ± 0.1 kg/m3 | 1000.11 ± 0.1 kg/m3 | 1000.11 ± 0.1 kg/m3 | 1000.11 ± 0.1 kg/m3 | 1000.1 ± 0.1 kg/m3
m1 = 0.0026 | 1000.03 ± 0.1 kg/m3 | 1000.06 ± 0.1 kg/m3 | 1000.08 ± 0.1 kg/m3 | 1000.1 ± 0.1 kg/m3 | 1000.11 ± 0.1 kg/m3 | 1000.12 ± 0.1 kg/m3 | 1000.13 ± 0.1 kg/m3 | 1000.13 ± 0.1 kg/m3 | 1000.13 ± 0.1 kg/m3 | 1000.12 ± 0.1 kg/m3
m1 = 0.0035 | 1000.1 ± 0.1 kg/m3 | 1000.13 ± 0.1 kg/m3 | 1000.15 ± 0.1 kg/m3 | 1000.17 ± 0.1 kg/m3 | 1000.18 ± 0.1 kg/m3 | 1000.19 ± 0.1 kg/m3 | 1000.19 ± 0.1 kg/m3 | 1000.2 ± 0.1 kg/m3 | 1000.19 ± 0.1 kg/m3 | 1000.19 ± 0.1 kg/m3
m1 = 0.0036 | 1000.1 ± 0.1 kg/m3 | 1000.13 ± 0.1 kg/m3 | 1000.15 ± 0.1 kg/m3 | 1000.17 ± 0.1 kg/m3 | 1000.18 ± 0.1 kg/m3 | 1000.19 ± 0.1 kg/m3 | 1000.2 ± 0.1 kg/m3 | 1000.2 ± 0.1 kg/m3 | 1000.19 ± 0.1 kg/m3 | 1000.19 ± 0.1 kg/m3
m1 = 0.0038 | 1000.11 ± 0.1 kg/m3 | 1000.13 ± 0.1 kg/m3 | 1000.15 ± 0.1 kg/m3 | 1000.17 ± 0.1 kg/m3 | 1000.18 ± 0.1 kg/m3 | 1000.19 ± 0.1 kg/m3 | 1000.2 ± 0.1 kg/m3 | 1000.2 ± 0.1 kg/m3 | 1000.2 ± 0.1 kg/m3 | 1000.19 ± 0.1 kg/m3
m1 = 0.0045 | 1000.16 ± 0.1 kg/m3 and 1000.17 ± 0.1 kg/m3 | 1000.18 ± 0.1 kg/m3 and 1000.2 ± 0.1 kg/m3 | 1000.21 ± 0.1 kg/m3 and 1000.22 ± 0.1 kg/m3 | 1000.23 ± 0.1 kg/m3 and 1000.24 ± 0.1 kg/m3 | 1000.24 ± 0.1 kg/m3 and 1000.25 ± 0.1 kg/m3 | 1000.25 ± 0.1 kg/m3 | 1000.25 ± 0.1 kg/m3 and 1000.26 ± 0.1 kg/m3 | 1000.25 ± 0.1 kg/m3 and 1000.26 ± 0.1 kg/m3 | 1000.25 ± 0.1 kg/m3 and 1000.26 ± 0.1 kg/m3 | 1000.24 ± 0.1 kg/m3 and 1000.25 ± 0.1 kg/m3
m1 = 0.0047 | 1000.16 ± 0.1 kg/m3 | 1000.19 ± 0.1 kg/m3 | 1000.21 ± 0.1 kg/m3 | 1000.23 ± 0.1 kg/m3 | 1000.24 ± 0.1 kg/m3 | 1000.25 ± 0.1 kg/m3 | 1000.26 ± 0.1 kg/m3 | 1000.26 ± 0.1 kg/m3 | 1000.25 ± 0.1 kg/m3 | 1000.25 ± 0.1 kg/m3
m1 = 0.0053 | 1000.21 ± 0.1 kg/m3 and 1000.22 ± 0.1 kg/m3 | 1000.23 ± 0.1 kg/m3 and 1000.25 ± 0.1 kg/m3 | 1000.26 ± 0.1 kg/m3 and 1000.27 ± 0.1 kg/m3 | 1000.27 ± 0.1 kg/m3 and 1000.28 ± 0.1 kg/m3 | 1000.29 ± 0.1 kg/m3 and 1000.3 ± 0.1 kg/m3 | 1000.29 ± 0.1 kg/m3 and 1000.31 ± 0.1 kg/m3 | 1000.3 ± 0.1 kg/m3 and 1000.31 ± 0.1 kg/m3 | 1000.3 ± 0.1 kg/m3 and 1000.31 ± 0.1 kg/m3 | 1000.3 ± 0.1 kg/m3 and 1000.31 ± 0.1 kg/m3 | 1000.29 ± 0.1 kg/m3 and 1000.3 ± 0.1 kg/m3
m1 = 0.0055 | 1000.21 ± 0.1 kg/m3 | 1000.23 ± 0.1 kg/m3 | 1000.25 ± 0.1 kg/m3 | 1000.27 ± 0.1 kg/m3 | 1000.29 ± 0.1 kg/m3 | 1000.29 ± 0.1 kg/m3 | 1000.3 ± 0.1 kg/m3 | 1000.3 ± 0.1 kg/m3 | 1000.3 ± 0.1 kg/m3 | 1000.29 ± 0.1 kg/m3
